Measured values published in ChEMBL document CHEMBL3351526, “Structure-based optimization of non-peptidic Cathepsin D inhibitors” (Bioorg Med Chem Lett, 2014).
Calls of active or inactive are those of the source. The rule behind the calls is not given here.

Legend:
Cathepsin D [1] = target: T1, Cathepsin D (Homo sapiens, UniProt P07339)
Cathepsin D (Bos taurus) = target: T2, Cathepsin D (Bos taurus) (UniProt P80209); assay: Inhibition of cathepsin D in bovine cartilage explants assessed as reduction in sulphated GAGs level at <1 uM after 3 days by spectrophotometric 1,9-dimethylmethylene blue shift assay based glycosaminoglycan release method
T2 sequence (whole entry): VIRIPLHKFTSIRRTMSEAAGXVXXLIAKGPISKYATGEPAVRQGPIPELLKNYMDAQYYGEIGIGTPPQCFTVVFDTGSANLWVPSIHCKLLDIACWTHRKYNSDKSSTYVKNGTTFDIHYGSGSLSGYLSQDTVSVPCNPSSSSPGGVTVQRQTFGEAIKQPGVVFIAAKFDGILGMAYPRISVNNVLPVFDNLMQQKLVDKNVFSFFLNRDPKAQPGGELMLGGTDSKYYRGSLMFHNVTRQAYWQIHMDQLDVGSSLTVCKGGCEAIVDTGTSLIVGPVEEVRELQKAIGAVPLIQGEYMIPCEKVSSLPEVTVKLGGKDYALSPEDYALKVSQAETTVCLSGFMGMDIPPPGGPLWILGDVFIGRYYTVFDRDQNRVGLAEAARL

Renin = target: T3, Renin (Homo sapiens, UniProt P00797); assay: Inhibition of human recombinant renin using quenched Dabcyl-g-Abu-IHPFHLVIHT-Edans peptide substrate by fluorescence-based assay
T3 sequence (P00797 whole entry): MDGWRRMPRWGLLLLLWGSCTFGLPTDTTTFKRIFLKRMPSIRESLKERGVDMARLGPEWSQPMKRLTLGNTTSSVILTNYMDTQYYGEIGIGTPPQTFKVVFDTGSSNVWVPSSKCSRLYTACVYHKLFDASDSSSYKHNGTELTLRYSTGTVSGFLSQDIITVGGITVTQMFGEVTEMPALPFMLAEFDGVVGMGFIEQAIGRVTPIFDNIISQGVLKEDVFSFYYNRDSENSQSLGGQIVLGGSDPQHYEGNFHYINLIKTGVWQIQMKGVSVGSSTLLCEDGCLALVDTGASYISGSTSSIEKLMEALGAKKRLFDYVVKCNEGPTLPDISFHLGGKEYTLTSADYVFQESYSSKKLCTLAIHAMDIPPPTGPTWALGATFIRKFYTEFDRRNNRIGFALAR

Cathepsin D [2] = target: T1, Cathepsin D; assay: Inhibition of human liver cathepsin D using MCA-labeled GKPILFFRLK(Dnp)-D-R-NH2 peptide by fluorescence-based assay
[3] = Stability in rat liver microsomes assessed as intrinsic clearance; assay type: ADME; conditions: read-out: CLH
Cathepsin D [4] = target: T4, Cathepsin D (Bos taurus, UniProt P80209); assay: Inhibition of cathepsin D in bovine cartilage explants assessed as reduction in sulphated GAGs level after 3 days by spectrophotometric 1,9-dimethylmethylene blue shift assay based glycosaminoglycan release method
T4 sequence (P80209 whole entry): T2 sequence (whole entry)

[5] = Stability in human liver microsomes assessed as intrinsic clearance; assay type: ADME; conditions: read-out: CLH
[6] = Stability in mouse liver microsomes assessed as intrinsic clearance; assay type: ADME; conditions: read-out: CLH
[7] = Apparent permeability across apical to basolateral side in human Caco2 cells; assay type: ADME, cell-based; conditions: Caco-2
[8] = Inhibition of pepsin (unknown origin); set-up: species or system Homo sapiens

T1 sequence (P07339 65-162 limits assumed): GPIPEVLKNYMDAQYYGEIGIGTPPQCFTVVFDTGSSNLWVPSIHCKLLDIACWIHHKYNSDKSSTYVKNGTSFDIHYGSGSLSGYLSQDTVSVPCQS
T1 sequence (P07339 169-412 limits assumed): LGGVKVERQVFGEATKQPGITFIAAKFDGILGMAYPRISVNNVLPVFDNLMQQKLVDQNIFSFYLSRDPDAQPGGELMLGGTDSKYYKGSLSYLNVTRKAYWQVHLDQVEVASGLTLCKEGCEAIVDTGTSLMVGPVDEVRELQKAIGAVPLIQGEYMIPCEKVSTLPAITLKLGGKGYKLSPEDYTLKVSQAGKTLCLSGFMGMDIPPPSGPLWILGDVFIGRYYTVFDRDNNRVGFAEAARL

Row | SMILES | IC50 (Renin) [µM] | IC50 (Cathepsin D [2]) [µM] | microsomal CLint [3] [µL/min/mg] | microsomal CLint [5] [µL/min/mg] | also measured
1 | COc1cc(Br)c(C(=O)N[C@@H](Cc2cccc(Oc3ccccc3)c2)[C@@H](O)CN(CCc2ccc(Cl)cc2Cl)C(=O)CCN2C(=O)c3ccccc3C2=O)cc1OC |  |  |  |  | IC50 (Cathepsin D [1]): 0.085 µM; inhibition (Cathepsin D (Bos taurus)): inactive
2 | COc1cc(CC(=O)NC(=N)NCc2ccc(Cl)c(Cl)c2)c([N+](=O)[O-])cc1OC | > 30 | 0.44 |  |  | inhibition (Cathepsin D (Bos taurus)): inactive
3 | COc1cc(CNC(=O)[C@@H](CC2CCCCC2)NC(=N)NC(=O)Cc2cc(OC)c(OC)cc2Br)ccc1F | > 30 |  | 823 | > 1000 | IC50 (Cathepsin D [4]): 0.9 µM
4 | COc1ccc(Cl)c(CC(=O)NC(=N)NCc2ccccc2)c1 | > 30 | 6.1 |  |  | 
5 | COc1ccc(CC(=O)NC(=N)NCc2ccc(C)cc2)cc1OC | > 30 | 1.9 |  |  | inhibition (Cathepsin D (Bos taurus)): inactive
6 | COc1cc(CC(=O)NC(=N)NCc2ccccc2Cl)c([N+](=O)[O-])cc1OC | > 30 | 3 |  |  | inhibition (Cathepsin D (Bos taurus)): inactive
7 | COc1cc(CCCC(=O)NC(=N)NCc2ccccc2)c([N+](=O)[O-])cc1OC | > 30 | 18 |  |  | 
8 | COc1cc(CC(=O)NC(=N)NCc2ccccc2)c([N+](=O)[O-])cc1OC | > 30 | 10 |  |  | 
9 | COc1ccc(CC(=O)NC(=N)N[C@H](CC2CCCCC2)C(=O)NCc2ccc(-c3nnn[nH]3)cc2)cc1OC |  |  | 38 | 76 | microsomal CLint [6]: < 10 µL/min/mg; IC50 (Cathepsin D [4]): 1.8 µM; Papp A→B [7]: 0.25 ×10⁻⁶ cm/s
10 | COc1ccc(CC(=O)NC(=N)N[C@H](CC2CCCCC2)C(=O)NCc2ccc(F)c(F)c2)cc1OC |  | 0.17 |  |  | 
11 | CC(C)CC(=O)N[C@H](C(=O)N[C@H](C(=O)N[C@@H](CC(C)C)[C@@H](O)CC(=O)N[C@@H](C)C(=O)N[C@@H](CC(C)C)[C@@H](O)CC(=O)O)C(C)C)C(C)C [PEPSTATIN] |  |  |  |  | IC50 [8]: 0.0001 µM
12 | COc1cc(Br)c(CC(=O)NC(=N)N[C@H](CC(C)C)C(=O)NCc2cccc(-c3nnn[nH]3)c2)cc1OC |  |  | 17 | 107 | microsomal CLint [6]: 38 µL/min/mg
13 | COc1cc(CC(=O)NC(=N)NCc2ccc(Cl)cc2)c([N+](=O)[O-])cc1OC | > 30 | 1.5 |  |  | inhibition (Cathepsin D (Bos taurus)): inactive
14 | COc1ccc(CC(=O)NC(=N)NCc2ccc(N)cc2)cc1OC | > 30 | 29 |  |  | 
15 | COc1cc(Br)c(CC(=O)NC(=N)N[C@H](CC2CCCCC2)C(=O)NCc2cccc(-c3nnn[nH]3)c2)cc1OC |  |  | 33 | 240 | microsomal CLint [6]: 40 µL/min/mg

Further lines, with some results ahead:

Row | IC50 (Renin) [µM] | IC50 (Cathepsin D [2]) [µM] | microsomal CLint [3] [µL/min/mg] | microsomal CLint [5] [µL/min/mg] | SMILES | also measured
16 | > 30 | 2.7 |  |  | COc1ccc(CNC(=N)NC(=O)Cc2cc(OC)c(OC)cc2[N+](=O)[O-])cc1OC | inhibition (Cathepsin D (Bos taurus)): inactive
17 |  |  | < 10 | 69 | COc1ccc(CC(=O)NC(=N)N[C@H](CC(C)C)C(=O)NCc2ccc(-c3nnn[nH]3)cc2)cc1OC | microsomal CLint [6]: < 10 µL/min/mg
18 | 20 | 25 |  |  | COc1ccc(CCC(=O)NC(=N)NCc2ccccc2)cc1OC | 
19 | 13 |  |  |  | COc1ccc(CNC(=O)[C@@H](CC2CCCCC2)NC(=N)NC(=O)Cc2ccc(OC)c(OC)c2)cc1F | 
20 |  |  | < 10 | 54 | COc1ccc(CC(=O)NC(=N)N[C@H](CC(C)C)C(=O)NCc2ccc(-c3nnn[nH]3)c(F)c2)cc1OC | 
21 | > 30 |  | 384 | > 1000 | COc1ccc(CNC(=O)[C@@H](Cc2ccccc2)NC(=N)NC(=O)Cc2ccc(OC)c(OC)c2)cc1OC | IC50 (Cathepsin D [4]): 0.33 µM
22 | 16 |  | 241 | > 1000 | COc1cc(CNC(=O)[C@@H](CC2CCCCC2)NC(=N)NC(=O)Cc2ccc(OC)c(OC)c2)ccc1F | IC50 (Cathepsin D [4]): 0.5 µM; Papp A→B [7]: 5 ×10⁻⁶ cm/s
23 | 8.7 |  | 148 | 966 | COc1cc(CNC(=O)[C@@H](CC(C)C)NC(=N)NC(=O)Cc2ccc(OC)c(OC)c2)ccc1F | IC50 (Cathepsin D [4]): 0.62 µM
24 |  |  | 143 | 262 | COc1ccc(CNC(=O)[C@@H](CC(C)C)NC(=N)NC(=O)Cc2ccc(OC)c(OC)c2)cc1OC | 
